pEC50: −log10 of the molar value.
Key:
human α7 receptor = molecular target: T1, human α7 receptor (Homo sapiens, UniProt P36544); experiment: α7 NNR flux assay (FDSS Ca assay, positive allosteric modulation of acetylcholine response); assay type: cell-based; conditions: human α7 receptor stably expressed in rat GH4C1 cells; acetylcholine 20 μM; % modulation relative to PNU-120596 set to 100%
T1 construct: host or cells: rat GH4C1 cell line
Experimental: The nicotinic acetylcholine receptor α7 is a calcium-permeable ion channel, whose activity can be measured by over expression in mammalian cells or oocytes. In this version of the assay, the human α7 receptor is stably expressed in the rat GH4C1 cell line. The assay was used to identify positive allosteric modulators (PAMs) of the α7 receptor. Activation of the channel was measured by loading cells with the calcium-sensitive fluorescent dye. Calcium-4 (Assay kit from Molecular Devices), and then measuring real-time changes, in fluorescence upon treatment with test compounds.
The cell line ChanClone GH4C1-nAChRalpha7 from Genionics was seeded from frozen stock in 384-well plates in culture media 2-3 days before experiment to form an approximately 80% confluent layer on the day of experiment.
The cell culture were split into “22.5 cm×22.5 cm”-plates with approximately 100×10^3 cells/cm^2. After four days incubation in a humidified incubator at 37° C. and 5% CO2, it had grown to an 80-90% confluent layer, and the cells were harvested.
Two or three days before the experiment the cells were seeded in 384 well plates from Greiner bio-one (781946, CELLCOAT, Poly-D-Lysine, black, μClear).
The cells were seeded in 384 well plates with 30 μL/well (30000 cells/well) while stirring the cell suspension or otherwise preventing the cells from precipitating.
The loading buffer was 5% v/v Calcium-4 Kit and 2.5 mM Probenecid in assay buffer.
Culture media was removed from the cell plates and 20 μL loading buffer was added in each well. The cell plates were placed in trays and incubated 90 minutes in the incubator (37° C.). Thereafter the plates were incubated 30 minutes at room temperature, still protected from light.
The assay buffer was HBSS with 20 mM HEPES, pH 7.4 and 3 mM CaCl2.
[…] 10 mM compound solution in DMSO was diluted in 50 μL assay buffer. The final test concentrations in the cell plates were 20-10-5-2.5-1.25-0.625-0.312-0.156-0.078-0.039 μM. Assay buffer and 3 μM PNU-120596 were used for control. The agonist acetylcholine was added to a final concentration of 20 μM (˜EC100). In the FDSS7000 the Ex480-Em540 was measured with 1 second intervals. The baseline was made of 5 frames before addition of test compounds, and 95 frames more were made before addition of acetylcholine. The measurement stopped 30 frames after the 2nd addition. Raw data for each well were collected as “the maximum fluorescence count” in the interval 100-131 seconds and as “the average fluorescence count” in the interval 96-100 seconds. The positive allosteric modulation in the 2nd addition was the enhancement of agonist response with test compound compared to agonist alone.
Results were calculated as % modulation of test compound compared to the reference PNU-120596 set to 100%.

α7 nACh receptors = experiment: α7 NNR oocyte assay (electrophysiological recordings in Xenopus oocytes); assay type: cell-based, human or rat; conditions: compound at 10 μM co-applied with ACh (30 μM), fold modulation of the control response; for Fold modulation, peak: peak response; for Fold modulation, AUC: total charge (AUC)
Experimental: Expression of α7 nACh Receptors in Xenopus Oocytes.
Oocytes were surgically removed from mature female Xenepus laevis anaesthetized in 0.4% MS-222 for 10-15 min. The oocytes were then digested at room temperature for 2-3 hours with 0.5 mg/mL collagenase (type IA Sigma-Aldrich) in OR2 buffer (82.5 mM NaCl, 2.0 mM KCl, 1.0 mM MgCl2 and 5.0 mM HEPES, pH 7.6). Oocytes avoid of the follicle layer were selected and incubated for 24 hours in Modified Barth's Saline buffer (88 mM NaCl, 1 mM KCl, 15 mM HEPES, 2.4 mM NaHCO3, 0.41 mM CaCl2, 0.82 mM MgSO4, 0.3 mM Ca(NO3)2) supplemented with 2 mM sodium pyruvate, 0.1 U/l penicillin and 0.1 μg/1 streptomycin. Stage 1V oocytes were identified and injected with 4.2-48 nl of nuclease free water containing 0.1-1.2 ng of cRNA coding for human α7 nACh receptors or 3.0-32 ng of cRNA coding for rat α7 nACh receptors and incubated at 18° C. for 1-10 days when they were used for electrophysiological recordings.
Electrophysiological Recordings of α7 nACh Receptors Expressed in Oocytes.
Oocytes were used for electrophysiological recordings 1-10 days after injection. Oocytes were placed in a 1 mL bath and perfused with Ringer buffer (115 mM NaCl, 2.5 mM KCl, 10 mM HEPES, 1.8 mM CaCl2, 0.1 mM MgCl2, pH 7.5)'. Cells were impaled with agar plugged 0.2-1 MΩ electrodes containing 3 M KCl and voltage clamped at −90 mV by a GeneClamp 500B amplifier. The experiments were performed at room temperature. Oocytes were continuously perfused with Ringer buffer and the drugs were applied in the perfusate. ACh (30 μM) applied for 30 sec were used as the standard agonist for activation of the α7 nACh receptors. In the standard screening set-up the new test compound (10 μM or 30 μM) were applied for 1 min of pre-application allowing for evaluation of agonistic activity followed by 30 sec of co-application with ACh (30 μM) allowing for evaluation of PAM activity. The response of co-application was compared to the agonistic response obtained with ACh alone. The drug induced effects on both the peak response and the total charge (AUC) response were calculated thus giving the effect of drug induced PAM activity as fold modulation of the control response. Table 2 indicates fold modulation of compounds No. 21, 22, 24, 34, 35 and 36 at determined at 10 μM.
For more elaborate studies doses-response curves can be performed for evaluation of max-fold modulation and EC50 values for both peak and AUC responses.

T1 sequence (P36544 23-502): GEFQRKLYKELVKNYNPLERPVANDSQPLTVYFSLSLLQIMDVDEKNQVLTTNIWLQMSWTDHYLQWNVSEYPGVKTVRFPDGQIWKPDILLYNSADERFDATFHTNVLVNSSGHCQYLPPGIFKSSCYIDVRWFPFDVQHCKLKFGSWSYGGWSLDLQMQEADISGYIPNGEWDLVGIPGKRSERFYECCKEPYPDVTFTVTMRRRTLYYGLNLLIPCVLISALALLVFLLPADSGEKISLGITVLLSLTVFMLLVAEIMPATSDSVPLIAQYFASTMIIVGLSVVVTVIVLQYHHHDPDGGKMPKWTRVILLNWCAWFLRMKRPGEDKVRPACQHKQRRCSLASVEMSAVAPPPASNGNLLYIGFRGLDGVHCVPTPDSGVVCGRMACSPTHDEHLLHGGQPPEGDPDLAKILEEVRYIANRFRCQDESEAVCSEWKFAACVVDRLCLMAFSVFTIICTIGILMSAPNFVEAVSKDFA

| pEC50 (human α7 receptor) | melting point | Compound | Fold modulation, peak (α7 nACh receptors) | Fold modulation, AUC (α7 nACh receptors) |
| --- | --- | --- | --- | --- |
| 5.41 | 224 to 227 °C | COc1ccc(-n2nc(C)c3c(C(=O)Nc4c(C)ccnc4C)cc(C)nc32)cc1 [Compound 1, 1-(4-Methoxy-phenyl)-3,6-dimethyl-1H-pyrazolo[3,4-b]pyridine-4-carboxylic acid (2,4-dimethyl-pyridin-3-yl)-amide] | – | – |
| ≤ 4.70 | – | COc1ccc(-n2nc(OC)c3c(C(=O)Nc4c(C)ccnc4C)cc(C)nc32)cc1 [Compound 24, 3-Methoxy-1-(4-methoxy-phenyl)-6-methyl-1H-pyrazolo[3,4-b]pyridine-4-carboxylic acid (2,4-dimethyl-pyridin-3-yl)-amide] | 5.1 | 2.5 |
| 5.30 | 172 to 174 °C | COc1nccc(C)c1NC(=O)c1cc(C)nc2c1c(C)nn2-c1ccccc1 [Compound 27, 3,6-Dimethyl-1-phenyl-1H-pyrazolo[3,4-b]pyridine-4-carboxylic acid (2-methoxy-4-methyl-pyridin-3-yl)-amide] | – | – |
| 5.29 | 206 to 207 °C | COc1cc(C)ncc1NC(=O)c1cc(C)nc2c1c(C)nn2-c1ccccc1 [Compound 29, 3,6-Dimethyl-1-phenyl-1H-pyrazolo[3,4-b]pyridine-4-carboxylic acid (4-methoxy-6-methyl-pyridin-3-yl)-amide] | – | – |
| 5.25 | 208 to 209 °C | Cc1cc(C(=O)Nc2cccnc2C)c2c(C)nn(-c3ccccc3)c2n1 [Compound 31, 3,6-Dimethyl-1-phenyl-1H-pyrazolo[3,4-b]pyridine-4-carboxylic acid (2-methyl-pyridin-3-yl)-amide] | – | – |
| 5.21 | 227 to 228 °C | Cc1cc(C(=O)Nc2cnccc2C)c2c(C)nn(-c3ccccc3)c2n1 [Compound 32, 3,6-Dimethyl-1-phenyl-1H-pyrazolo[3,4-b]pyridine-4-carboxylic acid (4-methyl-pyridin-3-yl)-amide] | – | – |

Further lines, the molecule ahead of its results:

| Compound | pEC50 (human α7 receptor) | melting point | Fold modulation, peak (α7 nACh receptors) | Fold modulation, AUC (α7 nACh receptors) |
| --- | --- | --- | --- | --- |
| Cc1cc(C(=O)Nc2c(C)ccnc2C)c2c(C)nn(-c3ccc(S(N)(=O)=O)cc3)c2n1 [Compound 21, 3,6-Dimethyl-1-(4-sulfamoyl-phenyl)-1H-pyrazolo[3,4-b]pyridine-4-carboxylic acid (2,4-dimethyl-pyridin-3-yl)-amide] | ≤ 4.70 | – | 1.7 | 1.7 |
| Cc1cc(C(=O)Nc2c(C)ccnc2C)c2c(C)nn(-c3ccc(C(F)(F)F)cc3)c2n1 [Compound 22, 3,6-Dimethyl-1-(4-trifluoromethyl-phenyl)-1H-pyrazolo[3,4-b]pyridine-4-carboxylic acid (2,4-dimethyl-pyridin-3-yl)-amide] | ≤ 4.70 | – | 8.1 | 3.2 |
| Cc1cc(C(=O)Nc2c(C)ccnc2C)c2c(C)nn(-c3ccc(S(C)(=O)=O)cc3)c2n1 [Compound 34, 1-(4-Methanesulfonyl-phenyl)-3,6-dimethyl-1H-pyrazolo[3,4-b]pyridine-4-carboxylic acid (2,4-dimethyl-pyridin-3-yl)-amide] | ≤ 4.70 | – | 1.9 | 1.9 |
| COc1ccc(-n2nc(C)c3c(C(=O)Nc4c(C)ccnc4C)cc(-c4ccccc4)nc32)cc1 [Compound 35, 1-(4-Methoxy-phenyl)-3-methyl-6-phenyl-1H-pyrazolo[3,4-b]pyridine-4-carboxylic acid (2,4-dimethyl-pyridin-3-yl)-amide] | ≤ 4.70 | – | 14 | 9.2 |
| COc1ccc(-n2nc(C)c3c(C(=O)Nc4cnccc4C#N)cc(C)nc32)cc1 [Compound 36, 1-(4-Methoxy-phenyl)-3,6-dimethyl-1H-pyrazolo[3,4-b]pyridine-4-carboxylic acid (4-cyano-pyridin-3-yl)-amide] | ≤ 4.70 | – | 7.9 | 3.9 |

From patent US20130005743A1, “New positive allosteric modulators of nicotinic acetylcholine receptor” (H. Lundbeck A/S, priority 2011, published 2013)
